# Assay results as given in PMC10880116, “Identification of potential anti-inflammatory components in Moutan Cortex by bio-affinity ultrafiltration coupled with ultra-performance liquid chromatography mass spectrometry” (Frontiers in Pharmacology, 2024).
# Assays:
# [1] = target: T1, COX-2 (Homo sapiens, UniProt P35354); test: COX-2 inhibitory activity (COX-2 Inhibitor Screening Kit, fluorescence)
# T1 sequence (P35354 18-604): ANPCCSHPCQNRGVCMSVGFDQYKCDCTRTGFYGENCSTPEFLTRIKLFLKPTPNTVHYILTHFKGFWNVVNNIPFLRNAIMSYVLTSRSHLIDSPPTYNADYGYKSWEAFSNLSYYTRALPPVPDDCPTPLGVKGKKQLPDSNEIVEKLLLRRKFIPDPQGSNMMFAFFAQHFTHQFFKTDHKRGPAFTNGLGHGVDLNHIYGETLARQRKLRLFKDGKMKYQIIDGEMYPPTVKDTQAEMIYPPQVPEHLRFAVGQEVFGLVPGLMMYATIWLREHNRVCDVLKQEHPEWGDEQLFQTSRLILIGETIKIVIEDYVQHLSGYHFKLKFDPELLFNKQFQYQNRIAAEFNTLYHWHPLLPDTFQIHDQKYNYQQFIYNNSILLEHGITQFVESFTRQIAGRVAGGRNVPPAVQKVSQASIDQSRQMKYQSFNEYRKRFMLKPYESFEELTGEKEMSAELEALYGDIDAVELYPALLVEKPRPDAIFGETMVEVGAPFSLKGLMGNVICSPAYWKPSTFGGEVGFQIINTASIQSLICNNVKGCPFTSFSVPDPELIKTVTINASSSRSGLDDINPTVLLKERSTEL
# Method: In this experiment, the inhibitory effect was determined by using COX-2 Inhibitor Screening Kits. A 96-well black plate was employed, where COX-2 cofactor working solution (5 μL), COX-2 assay buffer (75 μL), test solution (5 μL), and COX-2 working solution (5 uL) were mixed and incubated for 10 min at 37°C in the dark. Then 5 μL of probe solution, together with 5 μL of COX-2 substrate solution, was added immediately. After a 37°C incubation in the dark for another 5 min, the fluorescence value was determined at an excitation wavelength of 560 nm and emission wavelength of 590 nm. […] Besides, COX-2 Assay Buffer was used in the blank control group to replace COX-2 working solution. MC extract or potential inhibitors were dissolved with DMSO as the test solution in the sample groups.
# Where, F1, F2, and F3 respectively indicate the fluorescence value of the three groups—100% enzyme activity control group, sample group and blank control group.
# [2] = test system: RAW264.7 cells; test: Cell viability assay (MTT); type: cell-based, mouse; settings: 12 h
# Method: RAW264.7 cells originated from mouse macrophage cell line were purchased from the American Type Culture Collection. DMEM medium containing 5% fetal bovine serum and 1% Penicillin G Streptomycin was used to culture the cells under 37°C in a humidified atmosphere of 5% CO2.
# Then DEME with 20% MTT solution was added, followed by a 37°C incubation for extra 4 h. After the supernatant was removed, DMSO was added to dissolve the insoluble formazan product. The optical density was measured by a microplate reader at 490 nm. In this experiment, the formula used to calculate cell viability was as follows: Cell viability %=ODexperimental group– ODblank group/ODcontrol group– ODblank group×100%
# [3] = target: T1, COX-2; settings: 20 μM, mixture of positive and negative control, affinity ultrafiltration
# Method: An experimental group and inactivated enzyme group were set up in this study for comparison. 40 μL of 100 mg/mL MC extract as well as 280 μL of COX-2 (100 U/mL) was transferred to EP tube in the experimental group, in contrast to the control group where 280 μL of inactivated COX-2 (boiled in the water bath for 30 min) was used as the substitute of the activated enzyme. The tubes from both groups were incubated at 37°C in the dark for 40 min, aiming to create an optimal condition under which the potentially suitable ligands would completely combined with the enzyme. A centrifugal filter was employed for ultrafiltration at 15000 × g for 15 min. Afterwards, 300 μL of PBS was added to the samples, and the unbound small molecules were removed by 15000 × g centrifugation for 15 min. […]
# UPLC-Q-Exactive-Orbitrap-MS was performed to analyze the compounds in the filtrate using Thermo Scientific Orbitrap Fusion Tribrid Mass Spectrometer (Thermo Fisher Scientific, United States) and Ultimate 3,000 Ultra-performance liquid chromatograph, at the same time with Waters ACQUITY UPLC BEH RP18 (2.1 mm × 100 mm, 1.7 μm) employed for chromatographic analysis. […] The measurements were read at the detection wavelength of 254 nm. […] By comparing peak areas of two groups, specific ligands binding to COX-2 were determined. […]
IC50 [1] [µM],SMILES,Concentration exhibiting no cytotoxicity against RAW264.7 cells ([2]; MTT) [µM],Concentration exhibiting no cytotoxicity against RAW264.7 cells ([2]; mouse) [µM],Response value (HPLC peak) in active enzyme group compared with inactivated enzyme control group [3]
12.1,COC(=O)c1cc(O)c(O)c(O)c1 [Methyl gallate],≤ 10,–,–
220,"O=C(OC[C@H]1O[C@@H](OC(=O)c2cc(O)c(O)c(O)c2)[C@H](OC(=O)c2cc(O)c(O)c(O)c2)[C@@H](OC(=O)c2cc(O)c(O)c(O)c2)[C@@H]1OC(=O)c1cc(O)c(O)c(O)c1)c1cc(O)c(O)c(O)c1 [PGG, 1,2,3,4,6-Penta-O-galloyl-β-D-glucopyranose]",–,≤ 150,–
–,"Nc1ncnc2c1ncn2[C@@H]1O[C@H](CO)[C@@H](O)[C@H]1O [adenosine, Adenosine]",–,–,no evident change
1.04,"O=C(OC[C@H]1O[C@@H](OC(=O)c2cc(O)c(O)c(O)c2)[C@H](OC(=O)c2cc(O)c(O)c(O)c2)[C@@H](OC(=O)c2cc(O)c(O)c(O)c2)[C@@H]1O)c1cc(O)c(O)c(O)c1 [TGG, 1,2,3,6-Tetra-O-galloyl-β-D-glucose]",≤ 20,–,–

SMILES,IC50 [1] [µM],Concentration exhibiting no cytotoxicity against RAW264.7 cells ([2]; MTT) [µM],Concentration exhibiting no cytotoxicity against RAW264.7 cells ([2]; mouse) [µM],Response value (HPLC peak) in active enzyme group compared with inactivated enzyme control group [3]
O=C(O)c1cc(O)c(O)c(O)c1 [Gallic acid],1520,≤ 250,–,–
C[C@@]12C[C@@]3(O)O[C@@H](O1)[C@]1(COC(=O)c4ccccc4)[C@H]3C[C@@]12O[C@@H]1O[C@H](COC(=O)c2cc(O)c(O)c(O)c2)[C@@H](O)[C@H](O)[C@H]1O [Galloylpaeoniflorin],6.68 ± 1.29,≤ 100,–,–
